Reference: patent US20120035161A1, “Novel Compositions and Methods of Treating Diseases Using the Same” (CORRIDOR PHARMACEUTICALS, INC., priority 2006, published 2012)
Several values for one entry are separate records, joined by “and”; a condition that tells them apart may be missing. Equal entries are not always repeated.

Tests used:
[1] = tested on: Serotonin (5-Hydroxytryptamine) 5-HT1, Non-Selective; test: Assay 271000 radioligand binding, 5-HT1 non-selective; set-up: species or system Wistar Rat
Experimental: (§1) The methods employed in this study have been adapted from the scientific literature to maximize reliability and reproducibility. Reference standards were run as an integral part of each assay to ensure the validity of the results obtained. Assays were performed under conditions as described below. Where presented, IC50 values were determined by a non-linear, least squares regression analysis using the Data Analysis Toolbox (MDL Information Systems, San Leandro, Calif., USA). Where inhibition constants (Ki) are presented, the Ki values were calculated using the equation of Cheng and Prusoff (Cheng, Y., Prusoff, W. H., Biochem. Pharmacol. 22:3099-3108, 1973) using the observed IC50 of the tested compound, the concentration of radioligand employed in the assay, and historical values for the KD of the ligand. Where presented, the Hill coefficient (nu), defining the slope of the competitive binding curve, was calculated using the Data Analysis Toolbox.

[2] = target: T1, Serotonin (5-Hydroxytryptamine) 5-HT1A (Homo sapiens, UniProt P08908); test: Radioligand binding, 5-HT1A ([3H] 8-OH-DPAT)
T1 construct: expressed in transfected cells; host or cells: CHO cells
T1 sequence (P08908 1-422): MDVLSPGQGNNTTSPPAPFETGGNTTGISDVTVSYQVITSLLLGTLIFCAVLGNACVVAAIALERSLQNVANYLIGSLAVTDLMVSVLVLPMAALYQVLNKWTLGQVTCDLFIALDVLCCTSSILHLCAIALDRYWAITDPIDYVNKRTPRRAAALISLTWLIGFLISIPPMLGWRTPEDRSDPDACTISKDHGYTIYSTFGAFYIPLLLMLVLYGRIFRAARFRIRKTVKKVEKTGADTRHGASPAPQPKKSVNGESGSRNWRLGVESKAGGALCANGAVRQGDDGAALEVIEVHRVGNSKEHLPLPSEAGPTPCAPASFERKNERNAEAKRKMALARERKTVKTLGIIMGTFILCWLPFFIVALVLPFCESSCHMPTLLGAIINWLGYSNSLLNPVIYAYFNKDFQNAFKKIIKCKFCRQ
Experimental: as §1

[3] = target: T2, Serotonin (5-Hydroxytryptamine) 5-HT1B (Rattus norvegicus, UniProt P28564); test: Assay 271200 radioligand binding, 5-HT1B; set-up: species or system Wistar Rat
T2 construct: from tissue
Experimental: as §1

[4] = tested on: Serotonin (5-Hydroxytryptamine) 5-HT2, Non-Selective; test: Assay 271600 radioligand binding, 5-HT2 non-selective; set-up: species or system Wistar Rat
Experimental: as §1

[5] = tested on: TNF-α; test: Model of LPS-mediated cytokine production, serum TNF-α; assay type: in vivo, CD1:ICR mice; settings: for TNFα inhibition, dose-response study: IP, up to a dose of 5 mg/kg
Experimental: (§2) Both ICI-685 and ICI-735 were formulated in water. For the time course study, both drugs were formulated at a concentration of 1 mg/ml and dosed 10 ml/kg to produce a dose of 10 mg/kg. For the dose-response study, drug was formulated at concentrations of 0.05, 0.2 and 0.5 mg/ml and dosed at a volume of 10 ml/kg to produce doses of 0.5, 2 and 5 mg/kg, respectively. Animals were dosed IV or IP.
CD1:ICR mice were obtained from Harlan (Indianapolis, Ind.) at 6 weeks of age. Animals were housed 5 per cage, kept on a 12 hr light dark cycle and fed food and water ad libitum. Animals were tested at 8-10 weeks of age.
(§3) Lipopolysaccharide (heat killed E. coli 0127:B5; Sigma Aldrich) was prepared in distilled water at a concentration of 0.025 mg/ml. LPS was dosed at a volume of 10 ml/kg (IP) to produce a final dose of 0.25 mg/kg (approximately 7.5 μg/mouse). Drugs were dosed prior to LPS administration as indicated elsewhere herein. Blood was collected by retro-orbital eye bleed 90 minutes after LPS administration, Serum was prepared from blood and TNF-α and IL-1β levels were measured by using the OPT-EIA mouse TNF-α and IL-1β ELISA kits (BD Biosciences) as per directions of the manufacturer.
The first study was designed to determine the optimal route of administration and the optimal pre-treatment time. Two pre-dose time course studies were conducted. The first (Study 1A) was conducted with 3 pre-dose time points (2, 6 and 18 hrs). The second was conducted at 0, 1 and 2 hr predose time points. For both studies, drug was dosed IP or IV.
Using data from the first study, a second study was conducted that was designed to measure dose-response activity of each compound. Compounds were tested at doses of […]., 2.0 and 5 mg/kg using the route and pre-treatment time that produced the best activity.
as §2, with “Compounds ICI-715, ICI-824, ICI-953” for “Both ICI-685”, “ICI-954” for “ICI-735”, “study,” for “study, both”, “drugs were” for “drug was”
as §3, with “mg/ml,” for “mg/ml.”, “[…]).” for “μg/mouse).”, “above.” for “elsewhere herein.”, “administration.” for “administration,”
The first study was designed to determine the optimal route of administration and the optimal pre-treatment time. One pre-dose time course was conducted (for all compounds) with compounds administered at 0, 1 and 2 hrs prior to LPS treatment. For both studies, drug was dosed IP or IV. The IP study and IV study were conducted on separate days.
Using data from the first study, a second study was conducted that was designed to measure dose-response activity of each compound. Compounds were tested at doses of 0.5, 2.0 and 5 mg/kg using the route and pre-treatment time that produced the best activity.

[6] = Phospholipidosis assay (LipidTox); assay type: cell-based; settings: human
Experimental: (§4) More recently, fluorescent dyes have been utilized to assess phospholipidosis in a high throughput manner (Nioi et al., 2007, Toxicol. Sci. 99:162-173). In this assay, HepG2 cells are plated in MEM growth medium and allowed to incubate overnight. Cells are treated with test compounds that have been added to the assay medium (10% fetal bovine serum) containing LipidTox (fluorescent lipophilic dye). After 48 h incubation, cells are fixed and stained with Hoechst. Plates are scanned with an automated fluorescent microscope (Thermo Fisher Cellomics ArrayScan 4.5) and image analysis is used to quantitate cell number and phospholipid accumulation. Compounds are tested in triplicate at multiple concentrations. Three reference compounds, sertraline, perhexyline, and meclizine (high, medium, and low inducers of phospholipidosis, respectively) are included in each assay. The data is expressed as fold induction over background and the % of the positive control (sertraline), which is calculated using the following equation:
(§5) % positive control=100×(RFUcompound−RFUbackground)/(RFUsertaline−RFUbackground),
(§6) where RFU=Relative Fluorescence Unit

[7] = tested on: HepG2 cells; test: Phospholipidosis assay (LipidTox); assay type: cell-based
Experimental: as §4, §5, §6

[8] = tested on: cryopreserved mixed gender human hepatocytes; test: Hepatocyte stability assay; assay type: in vitro ADME
Experimental: Test compounds (5 μM) were incubated with cryopreserved mixed gender human hepatocytes pooled from at least 3 donors. Cell viability of hepatocytes was assessed by a Trypan Blue assay prior to the initiation of the stability assay. The final hepatocyte cell density was 1.5×10^6 viable cells/mL, Samples were taken at 2 time points: 0 and 60 minutes. As positive controls, testosterone (20 μM) and 7-hydroxy-coumarin (100 μM) were incubated and sampled at 5 time points: 0, 15, 30, 60, and 120 minutes. Aliquots were removed and combined (50/50) with acetonitrile to terminate the reaction. Samples were mixed for 10 minutes and centrifuged. The supernatants were transferred to vial for analysis by HRMS. In this assay, both test compound and a des-glycine metabolite (M1) are quantified based on peak area response ratios.
The enzymatic activities of the human cryopreserved hepatocytes used in this study were verified in parallel by determining the disappearance of testosterone (expressed as half-life) and the formation of 7-hydroxycoumarin glucuronide and 7-hydroxycoumarin sulfate (expressed as a formation rate).

[9] = T = 60 minutes, 5 μM test compound

T2 sequence (P28564 whole entry): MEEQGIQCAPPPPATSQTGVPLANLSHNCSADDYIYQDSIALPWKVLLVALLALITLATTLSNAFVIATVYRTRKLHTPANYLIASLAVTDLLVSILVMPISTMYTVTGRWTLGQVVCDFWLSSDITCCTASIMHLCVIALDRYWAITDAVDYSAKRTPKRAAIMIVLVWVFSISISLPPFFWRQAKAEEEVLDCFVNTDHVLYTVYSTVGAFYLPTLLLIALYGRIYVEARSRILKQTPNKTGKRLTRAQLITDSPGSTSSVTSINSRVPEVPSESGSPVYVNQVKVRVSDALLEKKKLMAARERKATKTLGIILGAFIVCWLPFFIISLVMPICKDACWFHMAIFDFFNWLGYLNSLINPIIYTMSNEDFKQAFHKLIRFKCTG

Compound | % INHIBITION ([1]; 0.1 μM) | % INHIBITION ([1]; 10 μM) | % INHIBITION ([2]; 0.1 μM) | % INHIBITION ([2]; 10 μM) | % INHIBITION ([3]; 0.1 μM) | % INHIBITION ([3]; 10 μM) | % INHIBITION ([4]; 0.1 μM) | % INHIBITION ([4]; 10 μM) | other results
NCCN1CCN(CCCCN2c3ccccc3Sc3ccc(C(F)(F)F)cc32)CC1 [ICI-953] | −10% | −1% | 5% | 54% | 7% | 2% | 16% | 71% | TNFα inhibition, dose-response study [5]: ineffective
Cc1cccc(CN2CCN(C(c3ccccc3)c3ccc(Cl)cc3)CC2)c1 (stereo not shown) [Meclizine, meclizine, reference compound] |  |  |  |  |  |  |  |  | cytotoxicity at 48 h, 25 µM [6]: 0%; fold induction at 48 h, 25 µM [6]: 13; % Positive Control ([7]; human, 48 h, 25 μM): 24%
O=CNCC(=O)NCCN1CCN(CCCN2c3ccccc3Sc3ccc(C(F)(F)F)cc32)CC1 [Compound 37b, 2-formamido-N-(2-(4-(3-(2-(trifluoromethyl)-10H-phenothiazin-10-yl)propyl)piperazin-1-yl)ethyl)acetamide] |  |  |  |  |  |  |  |  | cytotoxicity at 48 h, 1 µM [6]: 32%; cytotoxicity at 48 h, 3 µM [6]: 17%; cytotoxicity at 48 h, 10 µM [6]: 46%; cytotoxicity at 48 h, 30 µM [6]: 100%; fold induction at 48 h, 1 µM [6]: 1; fold induction at 48 h, 3 µM [6]: 4; fold induction at 48 h, 10 µM [6]: 12; cytotoxicity to HepG2 cells [7]: less cytotoxicity; propensity to form phospholipidosis [7]: lower propensity; % Positive Control ([7]; human, 48 h, 1 μM): 0.2%; % Positive Control ([7]; human, 48 h, 3 μM): 5.8%; % Positive Control ([7]; human, 48 h, 10 μM): 21.3%
CN(C)S(=O)(=O)c1ccc2c(c1)N(CCCN1CCN(CCN)CC1)c1ccccc1S2 [ICI-715] | 15% | 62% |  |  |  |  | 18% | 83% | inhibition at 0.1 µM ([2]; 0.1 μM): 5%; inhibition at 10 µM ([2]; 10 μM): 87%; inhibition at 0.1 µM ([3]; 0.1 μM): 23%; inhibition at 10 µM ([3]; 10 μM): 90%; inhibition of TNFα ([5]; dose-response, all doses tested 0.5 to 5 mg/kg, IV): ≥ 50%
C1CCC(C(CC2CCCCN2)C2CCCCC2)CC1 (stereo not shown) [Perhexil, perhexyline, reference compound] |  |  |  |  |  |  |  |  | % Cytotoxicity ([7]; 3 μM, 48 h): 10%; Fold Induction ([7]; 3 μM, 48 h): 38; % Positive Control ([7]; 3 μM, 48 h, positive control sertraline): 72%
CN[C@H]1CC[C@@H](c2ccc(Cl)c(Cl)c2)c2ccccc21 [Sertaline, sertraline, reference compound] |  |  |  |  |  |  |  |  | cytotoxicity at 48 h, 3 µM [6]: 15%; fold induction at 48 h, 3 µM [6]: 52; % Positive Control ([7]; human, 48 h, 3 μM): 100%
FC(F)(F)c1ccc2c(c1)N(CCC1CCNCC1)c1ccccc1S2 [ICI-1007] | −12% | 24% | 2% | 48% | 8% | 48% | 51% | 87% | 
NCCN1CCC(CCN2c3ccccc3Sc3ccc(C(F)(F)F)cc32)CC1 [ICI-1008] | −20% | 3% | 4% | 69% | −3% | 0% | 38% | 94% | 
CNCC(=O)NCCN1CCC(CCCN2c3ccccc3Sc3ccc(C(F)(F)F)cc32)CC1 [ICI-849] | −2% | 10% |  |  |  |  | 15% | 85% | inhibition at 0.1 µM ([2]; 0.1 μM): 18%; inhibition at 10 µM ([2]; 10 μM): 65%; inhibition at 0.1 µM ([3]; 0.1 μM): -7%; inhibition at 10 µM ([3]; 10 μM): -2%
CC(C)(N)C(=O)NCCN1CCN(CCCN2c3ccccc3Sc3ccc(C(F)(F)F)cc32)CC1 [Compound 36a, 2-Amino-2-methyl-N-(2-(4-(3-(2-(trifluoromethyl)-10H-phenothiazin-10-yl)propyl)piperazin-1-yl)ethyl)propanamide] |  |  |  |  |  |  |  |  | Relative Level (%) ([8]; T = 0 minutes, 5 μM test compound): 97.3% and 102.8%; Peak Areas [8, 9]: 3.42E+06 and 3.82E+06; Relative Level (%) [8, 9]: 99.0% and 109.1%; susceptibility to the metabolic transformation to the metabolite M1 ([8]; compared with ICI-735): less susceptible
FC(F)(F)c1ccc2c(c1)N(CCCC1CCNCC1)c1ccccc1S2 [ICI-824] | −14% | 11% |  |  |  |  | 28% | 84% | inhibition at 0.1 µM ([2]; 0.1 μM): 2%; inhibition at 10 µM ([2]; 10 μM): 53%; inhibition at 0.1 µM ([3]; 0.1 μM): 2%; inhibition at 10 µM ([3]; 10 μM): 6%; TNFα inhibition, dose-response study [5]: ineffective
NCC(=O)NCCN1CCN(CCCCN2c3ccccc3Sc3ccc(C(F)(F)F)cc32)CC1 [ICI-954] | −3% | 18% | 6% | 56% | 4% | −1% | 21% | 89% | TNFα inhibition, dose-response study [5]: ineffective
